Values quoted from earlier work, collected in patent US20250312371A1, “CROSS-LINKED POLYMERIC CHELATORS COMPOSITIONS AND USE THEREOF” (THE UNIVERSITY OF KANSAS, priority 2021, published 2025).

relative iron binding constant (Fe(III)): 35.5
SMILES: O=C(N[C@H]1COC(=O)[C@@H](NC(=O)c2cccc(O)c2O)COC(=O)[C@@H](NC(=O)c2cccc(O)c2O)COC1=O)c1cccc(O)c1O [Enterobactin]
Log K (iron chelation): 52
